{"source": "patent US20150241410A1", "about": "“INHIBITORS OF CENTRAL NERVOUS SYSTEM VASOACTIVE INHIBITORY PEPTIDE RECEPTOR 2” (The Trustees Of Columbia University In The City Of New York, priority 2012, published 2015)", "key": {"[1]": {"target": "T1, VIPR2 (Homo sapiens, UniProt P41587)", "T1 construct": "expressed in transfected cells", "T1 sequence (P41587 24-438)": "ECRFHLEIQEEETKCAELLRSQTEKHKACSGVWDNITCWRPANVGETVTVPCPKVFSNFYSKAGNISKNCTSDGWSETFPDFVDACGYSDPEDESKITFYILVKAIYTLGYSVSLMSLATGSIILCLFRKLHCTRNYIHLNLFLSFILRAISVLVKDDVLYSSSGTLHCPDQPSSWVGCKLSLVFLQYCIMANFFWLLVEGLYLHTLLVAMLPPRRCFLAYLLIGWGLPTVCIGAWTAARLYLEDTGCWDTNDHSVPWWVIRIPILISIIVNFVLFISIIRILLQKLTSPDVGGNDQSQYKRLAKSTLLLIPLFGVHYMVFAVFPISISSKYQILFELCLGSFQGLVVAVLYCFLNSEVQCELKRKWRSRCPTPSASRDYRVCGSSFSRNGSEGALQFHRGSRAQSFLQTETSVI", "assay": "BRET-based VIPR2 activation assay (CAMYEL cAMP sensor, CHO cells, VIP background)", "format": "cell-based", "settings": "compared with Compound 1 or other compounds (FIG. 1C, FIG. 5B)", "procedure": "FIG. 5A-B. Results of BRET-based VIPR2 activation assays in cells expressing both the VIPR2 receptor and CAMYEL (see FIG. 1A for schematic). a) Inhibitory dose-response curves on treatment of CHO cells with increasing concentrations of a batch of antagonists against a background of VIP activation (VIP=5 nM).\nIn such a system, a detector cell is used which expresses both the VIPR2 receptor and “CAMYEL,” a YFP-Epac-RLuc8 BRET sensor construct. This construct includes Epac1, a guanine nucleotide exchange factor activated by direct binding of cAMP, fused with an enhanced YFP and Renilla luciferase 8 (Rluc8) allowing BRET upon cAMP-induced conformational changes (Jiang et al., 2007, J Biol Chem. 282:10576-10584). In response to elevated cAMP levels, there is a conformational change in Epac and therefore a change in the proximity of the fused chromophores, Rluc8 and YFP, resulting in measurable energy transfer. Coexpression of this BRET construct with VIPR2. optionally tagged at the N-terminus with a signal peptide and FLAG epitope (SF-VIPR2), for example in HEK293 cells, allows for detection of a VIPR2-specific response to cAMP. BRET readout may be calculated by quantifying the ratio of the light emitted by the acceptor, YFP (λ=525 nm), over the emission from the donor, RLuc8 (λ=485 nm). The proximity of the donor and acceptor, and therefore the BRET ratio, decreases in the presence of cAMP. In non-limiting specific embodiments, a stable cell line may be generated for this assay using the Flp-In T-Rex system in HEK293 cells. This system allows site-specific single copy integration of the gene of interest and control of expression levels using the Tet-repressor site making receptor expression tetracycline-inducible. For example, a CAMYEL and VIPR2 expressing line may be induced with 0.01 μg/ml tetracycline, then, 24 hours later cells may be collected and distributed into 96-well plates. After treatment with candidate inhibitor compound, for example at 5, 1 and 0.5 μM concentrations, cells may be incubated with the light emitting luciferin, coelenterazine H, for 5 min and incubated for 5 min with VIP at increasing concentrations, for example ranging from 100 pM to 10 μM. The fluorescence and luminescence may then be quantified, for example using a PHERAstar (BMG) plate reader. […] Alternatively, analogous experiments may be performed using human cells harvested from a patient having a VIPR2 copy number variation, for example (but not by way of limitation) pluripotent stem cells prepared from such a patient and then transfected with a CAMYEL construct.\nA series of compounds were prepared using a synthetic method analogous to that set forth in Scheme 1, above, and then tested for their ability to inhibit VIP-induced cAMP elevation and β-arrestin recruitment, as described herein (Discoverx Corporation, Fremont, Calif., US). Compound activities were also tested in a BRET-based assay, as described herein. The results are shown below in Tables 1-4, above.\nNumerous cellular assays were developed that were able to detect VIP responses absent of interference from non-specific vasopressin receptors using this CHO based system. VIPR2 is a Gs coupled receptor. Activation of VIPR2 by VIP leads to both an elevation in cAMP signaling and the recruitment of β-arrestin. A variety of combinations can be transiently transfect into these CHO cells for the assessment of cellular responses to VIP. For the BRET readout CHO cell lines expressing an YFP-Epac-RLuc8 (CAMYEL) BRET sensor were used to detect changes in cAMP. This construct includes Epac1, a guanine nucleotide exchange factor activated by direct binding of cAMP, fused to an enhanced YFP and RLuc8 allowing a change in BRET upon cAMP-induced conformational changes. The key for medium to high throughput screening assays is the use of stable cell lines allowing the continuous assaying of multiple compounds with the ability to generate large numbers of cells for rapid use. […]"}, "[2]": {"target": "T2, hVIPR1 (Homo sapiens, UniProt P32241)", "T2 construct": "expressed in transfected cells; host or cells: transient transfection with CAMYEL", "T2 sequence (P32241 31-457)": "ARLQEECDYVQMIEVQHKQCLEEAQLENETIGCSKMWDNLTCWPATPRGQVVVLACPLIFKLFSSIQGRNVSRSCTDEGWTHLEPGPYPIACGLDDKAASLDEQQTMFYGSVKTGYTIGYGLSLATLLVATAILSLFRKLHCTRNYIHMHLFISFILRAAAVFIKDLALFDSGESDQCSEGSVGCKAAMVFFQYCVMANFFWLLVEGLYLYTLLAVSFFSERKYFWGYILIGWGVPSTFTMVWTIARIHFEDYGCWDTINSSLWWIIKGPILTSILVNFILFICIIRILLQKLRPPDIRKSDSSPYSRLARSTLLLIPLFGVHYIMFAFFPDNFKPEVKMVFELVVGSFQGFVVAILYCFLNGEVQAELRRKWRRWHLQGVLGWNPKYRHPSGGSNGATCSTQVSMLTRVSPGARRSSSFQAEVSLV", "assay": "CAMYEL BRET cAMP assay in transient cell lines expressing hVIPR1", "format": "cell-based", "settings": "transient cell lines expressing hVIPR1 and CAMYEL (FIG. 7)", "description": "These assays are now being used for reliable and rapid quantification of VIPR2 responses to various antagonists under development for this receptor. This assay can also be used to evaluate agonists to VIPR2 and allosteric compounds, in addition to addresing the functional selectivity of different compounds, as it is possible to address multiple pathways effected by modulation of VIPR2 using this second messenger detection systems (cAMP and β-arrestin). This cellular assay for the detection of […] is applicable to multiple members of the […]. To this end lines were also developed expressing CAMYEL together with VIPR1 and PACAP1R (both the human and mouse forms) using transient transfection. This allows for the confirmation of specificity of novel antagonists to the VIPR2 receptor in addition to providing the ability to assay VIPR1 and PACAPR1 antagonists, agonists and allosteric modulators. […] These assays allow assays of VIPR2 antagonist, agonists and other compounds acting at […] in a specific, selective, rapid and medium to high throughput manner."}}}
{"smiles": "CC(=O)c1ccc(S(=O)(=O)NC[C@@H](O)C[C@@H](Cc2ccccc2)C(=O)N[C@H]2c3ccccc3C[C@H]2O)cc1", "note": "[K]", "values": [{"measurement": "VIPR2 inhibition in BRET-based assay, in words", "setting": "[1]", "result": "significantly improved activity as an antagonist at VIPR2"}, {"measurement": "specificity for VIPR2 over hVIPR1", "setting": "[2]", "result": "VIPR2 specificity"}]}
